According to patent US20230265065A1 (WEST VIRGINIA UNIVERSITY BOARD OF GOVERNORS ON BEHALF OF …, priority 2020, published 2023):
Entries after “also recorded” stand apart in the source; their conditions may differ. Each block holds one molecule with its values, some of them ahead of it.

Tests used:
PTPRδ [1] = target: T1, PTPRδ (Homo sapiens, UniProt P23468); test: PTP panel inhibition, PTPRδ; assay type: biochemical; set-up: We maintain a library of PTP catalytic domains
T1 sequence (P23468 1357-1612): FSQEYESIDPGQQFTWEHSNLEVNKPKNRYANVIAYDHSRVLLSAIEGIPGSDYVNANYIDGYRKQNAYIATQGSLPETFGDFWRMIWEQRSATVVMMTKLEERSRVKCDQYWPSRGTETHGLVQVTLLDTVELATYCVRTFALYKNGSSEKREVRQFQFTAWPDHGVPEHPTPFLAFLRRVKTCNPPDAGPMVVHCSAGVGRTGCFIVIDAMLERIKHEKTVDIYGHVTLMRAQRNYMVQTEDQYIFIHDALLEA

LAR [2] = target: T2, LAR (Homo sapiens, UniProt P10586); test: Standard phosphatase assay (DiFMUP) with LAR, pH 6.5, 22° C.
T2 sequence (P10586 1352-1607): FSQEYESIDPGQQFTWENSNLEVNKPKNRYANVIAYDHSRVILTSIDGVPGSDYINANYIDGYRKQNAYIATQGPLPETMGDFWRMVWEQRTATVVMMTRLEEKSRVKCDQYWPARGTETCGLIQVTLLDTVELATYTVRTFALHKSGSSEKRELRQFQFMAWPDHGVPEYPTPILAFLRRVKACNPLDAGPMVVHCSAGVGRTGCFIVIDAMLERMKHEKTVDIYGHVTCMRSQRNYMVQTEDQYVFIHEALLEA
Description: Enzyme activity assays are performed in black 96-well plates containing a total volume of 100 μL in each well. […] Prior to each assay, the enzyme is activated by incubating in Bis-Tris buffer (50 mM Bis-Tris pH 6.5, 100 mM NaCl, 0.01% Brij 35, 1 mM EDTA) with 5 μL of 100 mM TCEP on ice for 30 min. Buffer, enzyme, and either a DMSO control or the compound of interest are added to each well of the 96-well plate and incubated for 30 min at room temperature. After this 30-min preincubation period, the substrate DiFMUP is added to initiate the reaction. The observed fluorescence resulting from the hydrolysis of DiFMUP is measured every 60 s for 30 min in a SpectraMax M5 plate reader with excitation and emission wavelengths of 350 and 455 nm, respectively.
Assays to investigate time-dependent inhibition are performed as described in the initial inhibitory screen assays section with slight modifications. Buffer and enzyme are initially added to each well, followed by sequential addition of inhibitor starting from the longest incubation time to the shortest.
Assays to determine kobs values were performed as described in the Initial inhibitory screen assays section above with slight modification. Buffer, inhibitor and DMSO were added to each well as appropriate. Enzyme was then added to each well and allowed to incubate for the desired time, followed by addition of DiFMUP to initiate the assay.

PTPRδ [3] = target: T1, PTPRδ; test: Preliminary LAR-PTP inhibition assay at pH 8; assay type: biochemical; settings: pH 8, 100 μM compound, 30 min preincubation
Description: The illudalogs of this invention show inhibitory activity against LAR-PTPs in preliminary assays at pH 6.5 and pH 8 (FIG. 9). In all assays, 100 μM of compound was incubated with enzyme for 30 min prior to the assay. […] This apparent pH-dependence is consistent with the postulated two-stage binding mechanism and will be investigated further. There is some variation in potency and selectivity across the analogues, although these preliminary assays are not precise enough to support quantitative conclusions.

SHP2 = target: T3, SHP2 (Homo sapiens, UniProt Q06124); test: PTP panel screen, SHP2; assay type: biochemical; settings: 250 nM
T3 construct: We maintain a library of PTP catalytic domains
T3 sequence (Q06124 247-517): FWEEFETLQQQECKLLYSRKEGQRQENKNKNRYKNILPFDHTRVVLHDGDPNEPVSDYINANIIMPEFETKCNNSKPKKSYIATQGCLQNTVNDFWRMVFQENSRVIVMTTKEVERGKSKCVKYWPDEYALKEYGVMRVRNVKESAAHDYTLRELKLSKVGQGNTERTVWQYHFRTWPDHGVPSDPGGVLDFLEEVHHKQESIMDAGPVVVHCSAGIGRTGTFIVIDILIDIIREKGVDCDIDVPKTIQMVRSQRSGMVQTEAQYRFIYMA
Description: (§1) We screen illudalogs against a panel of PTPs including PTPRD, as illustrated in FIG. 16. […] Typical experimental conditions are 5-10 nM enzyme, 1-10 μM DiFMUP, and 250 nM inhibitor at 37° C.

[4] = tested on: LAR-PTP subfamily (LAR, PTPRσ, and PTPR^δ); test: PTP panel screen, LAR-PTP subfamily; assay type: biochemical, human; settings: panel also with PTP1B, SHP2, and CD45
Description: as §1

PTPRD [5] = target: T4, PTPRD (Homo sapiens, UniProt P23468); test: PTPRD inhibitor screen and IC50 at pH 7.5 and 37° C.; assay type: biochemical; settings: 1 μM
T4 construct: We maintain a library of PTP catalytic domains
T4 sequence (P23468 1357-1612): T1 sequence (P23468 1357-1612)

PTPRD [6] = target: T4, PTPRD; test: as above; assay type: biochemical; settings: for PTPRD inhibition in preliminary screening assays: 1 μM and 250 nM; for IC50: pH 7.5 and 37° C.
[7] = Storage stability as pure substance or in DMSO; assay type: physicochemical; settings: room temperature for six months
Description: As discussed above, our new synthetic approach focuses on convergent benzannulation, followed by conversion to the ortho-formyl hydroxy-lactone pharmacophore (FIG. 1). […] LiAlH4, then 6M HCl, ca. 40-70% yields of IAn compounds, which generally precipitate from aqueous acid as white crystalline solids. Intermediates 5 can be isolated for derivatization prior to acidic hydrolysis or advanced directly to the IAn compounds. Optimization is proposed and in progress. Currently, IA1 is produced in ca. 27% yield over 4 steps from 3. We have prepared >35 g of ester 2; ≥100 mg of IA1 and IA3; and ≥10 mg each of the other illudalog compounds of this invention. […] For IA1, we access β-keto amide 1a in two steps from known enal 3.^61 Other β-keto amides 1 provide parallel access to diverse illudalog cores (e.g., 1b→IA3, FIG. 1, bottom). We prepare β-keto ester 2^62 on multigram-scale using CDI-mediated decarboxylative coupling;^63 we have >35 g of 2 in stock. β-Keto ester 2 is the common building block for illudalogs prepared thus far; it comprises functional precursors to the hydroxy-lactone. The benzannulation is adapted from a known naphthol annulation.^64 The final reduction and hydrolysis sequence can be executed as a one-pot operation or with isolation of intermediate 5. Presumably, the deprotonated phenol directs reduction of the ortho-amide over the para-ester. […]

CD45 = target: T5, CD45 (Homo sapiens, UniProt P08575); test: PTP panel inhibition, CD45; assay type: biochemical
T5 construct: We maintain a library of PTP catalytic domains
T5 sequence (P08575 653-912): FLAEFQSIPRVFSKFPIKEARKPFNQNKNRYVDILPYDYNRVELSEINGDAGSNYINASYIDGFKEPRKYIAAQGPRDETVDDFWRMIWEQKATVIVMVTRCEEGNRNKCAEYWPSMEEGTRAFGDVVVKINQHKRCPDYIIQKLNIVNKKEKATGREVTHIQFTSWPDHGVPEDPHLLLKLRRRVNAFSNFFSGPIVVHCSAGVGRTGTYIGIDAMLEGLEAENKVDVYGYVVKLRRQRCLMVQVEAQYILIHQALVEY

LAR [8] = target: T2, LAR; test: Reversibility of LAR inhibition by dialysis; assay type: biochemical; set-up: We maintain a library of PTP catalytic domains; settings: preliminary experiments

Compound: COc1c(C=O)c2c(c3c1CC(C)(C)C3)C(=O)OC(O)C2 (stereo not drawn) [IA1-6OMe]
inhibition of PTPRδ activity (PTPRδ [1]): inhibit | selectivity for LAR compared to other PTPs (LAR [2]; 100 μM inhibitor, pH 6.5, 22 degrees Centigrade): more selective for LAR | inhibitory activity in standard phosphatase assays (LAR [2]; LAR, standard assays): inhibit | initial thermodynamic binding affinity K1 (LAR [2]; LAR, standard assays): too weak | kinetic covalent ligation rate kinact (LAR [2]; LAR, standard assays): too fast | IC50 (LAR [2]; read-out: IC50 (LAR), standard assays, pH 6.5 and 22° C.): 55000 ± 6000 nM | potency and selectivity for PTPR^δ over other LAR-PTPs (PTPRδ [3]): potent and selective for PTPR^δ over LAR and PTPR^δ

Compound: CC1(C)CCc2c(c(O)c(C=O)c3c2C(=O)OC(O)C3)C1 (stereo not drawn) [IA2-8Me2]
inhibition at 0.25 µM (SHP2): > 50% | potency and selectivity for the LAR subfamily ([4]; listed as 15): most potent and is selective for the LAR subfamily

Compound: CC1(C)CCc2c(O)c(C=O)c3c(c2C1)C(=O)OC(O)C3 (stereo not drawn) [IA2-9Me2]
potency and selectivity for the LAR subfamily ([4]; listed as 16): different selectivity profile within the LAR subfamily

Compound: O=Cc1c2c(c3cc(F)c(F)cc3c1O)C(=O)OC(O)C2 (stereo not drawn) [IA3-89F]
IC50 (PTPRD [6]): 51 ± 5 nM

Compound: CC1(C)Cc2c(O)c(C=O)c3c(c2C1)C(=O)OC(O)C3 (stereo not drawn) [illudalic acid, reference compound]
inhibition of PTPRδ activity (PTPRδ [1]): inhibit | stability of NMR sample in DMSO [7]: unchanged | IC50 (PTPRD [6]): 90 ± 14 nM | inhibition of CD45 activity (CD45): inhibited | inhibitory activity in standard phosphatase assays (LAR [2]; LAR, standard assays): active; also recorded: inhibit | recovery of enzyme activity by dialysis (LAR [8]): enzyme activity cannot be recovered by dialysis

Other lines, results leading:

PTPRD inhibitory activity on rescreening (PTPRD [5]): lower inhibitory activity
Compound: CCOc1c(C=O)c2c(c3ccccc13)C(=O)OC(O)C2 (stereo not drawn) [IA3-6OEt]

PTPRD inhibitory activity on rescreening (PTPRD [5]): lower inhibitory activity
Compound: COc1c(C=O)c2c(c3ccccc13)C(=O)OC(O)C2 (stereo not drawn) [IA3-6OMe]

PTPRD inhibition in preliminary screening assays (PTPRD [6]): potent PTPRD inhibitors
Compound: O=Cc1c2c(c3ccc(Br)cc3c1O)C(=O)OC(O)C2 (stereo not drawn) [IA3-8Br]

PTPRD inhibition in preliminary screening assays (PTPRD [6]): potent PTPRD inhibitors
Compound: C#Cc1ccc2c3c(c(C=O)c(O)c2c1)CC(O)OC3=O (stereo not drawn) [IA3-8C2H]
